Laboratory results from patent US20100160267A1, “Treatment of Inflammatory Bowel Disease With 2-Methylene-19-Nor-Vitamin D Compounds” (WISCONSIN ALUMNI RESEARCH FOUNDATION, priority 2003, published 2010).
Marks after values point to notes of the source that are not given here.

What was measured:
IL-10 KO mice = test: Colitis development in vitamin D deficient IL-10 KO mice, compound given in the diet; assay type: in vivo, mice (C57BL/6); details: 2-MP 720 ng/d; for Development of colitis symptoms (in words): IL-10 KO mice, 2-MD 0.12 ng/d in the diet; for Incidence (# with colitis/n): incidence defined as SI/BW % of greater than 6.5, vitamin D deficient for 5 weeks, then in the diet for the remainder of 9-10 weeks: 1,25(OH)2D3 5 ng/d; for Incidence (# with colitis/n) / SI/BW (small intestine weight / body weight, all mice in the group): 2-MD 0.12 ng/d; for SI/BW (small intestine weight / body weight, all mice in the group): wildtype C57BL/6 values are 5-6, in the diet: 1,25(OH)2D3 5 ng/d
Source text: Recently a number of transgenic animals have been developed in which IBD symptoms occur spontaneously. One of the best animal models for Crohn's disease is the IL-10 knockout (KO) mouse (Kuhn et al. 1993, Mac Donald 1994). In conventional animal facilities, the IL-10 KO mice develop enterocolitis within 5-8 weeks of life (Kuhn et al. 1993). Approximately 30% of the IL-10 KO mice die following the development of severe anemia and weight loss (Kuhn et al. 1993). […] In addition mice raised in specific pathogen free facilities develop milder disease which doesn't result in the death of the mice (Kuhn et al. 1993). There are limitations involved in studying IL-10 KO mice as a model of IBD. If vitamin D is a regulator of IL-10 production then the results in this animal model may not represent […] what may happen in a “normal” immune response. However patients with Crohn's disease show similar symptoms, have depressed IL-10 production, and have been successfully treated with IL-10 (Narula et al. 1998).
(§1) Vitamin D deficient IL-10 KO mice were randomly distributed into one of 4 groups. Controls remained vitamin D deficient for the entire 9-10 weeks of the experiment. Mice treated with 1α,25-dihydroxyvitamin D3 (hereinafter “1,25(OH)2D3”) were vitamin D deficient for 5 weeks and then received 5 ng/d in the diet for the remainder of the experiment. 2-MP treated mice were vitamin D deficient for 5 weeks and then received 720 ng/d in the diet for the remainder of the experiment. 2-MD treated mice were vitamin D deficient for 5 weeks and then received 0.12 ng/d in the diet for the remainder of the experiment. VDR KO IL10KO mice were bred with VDR KO mice and the double IL10/VDR KO mice are compared here.

[1] = Serum calcium and body weight of treated vitamin D deficient IL-10 KO mice; assay type: in vivo, mice (C57BL/6); details: in the diet: 1,25(OH)2D3 5 ng/d, 2-MP 720 ng/d, 2-MD 0.12 ng/d
Procedure: as §1

IL-10 knock-out mice = details: cited from earlier work

SMILES	Development of colitis symptoms (in words) (IL-10 KO mice)	Incidence (# with colitis/n) (IL-10 KO mice)	SI/BW (small intestine weight / body weight, all mice in the group) (IL-10 KO mice)	BW (body weight) [1]	Serum Calcium [1]	Prevention of IBD (in words) (IL-10 knock-out mice)
C=C1[C@H](O)CC(=C/C=C2\CCC[C@]3(C)C(C(C)C)CC[C@@]23C)C[C@H]1O (stereo partly drawn) [2-MP, 1α-hydroxy-2-methylene-19-nor-homopregnacalciferol]	effective at inhibiting and/or preventing the development of colitis symptoms	0/8^c	5.4 ± 0.3^b %	20.2 ± 0.5^c g	–	–
C=C1/C(=C\C=C2/CCC[C@]3(C)[C@@H]([C@H](C)CCCC(C)(C)O)CC[C@@H]23)C[C@@H](O)C[C@@H]1O [1,25(OH)2D3, 1α,25-dihydroxyvitamin D3, reference compound]	–	1/28^c	5.8 ± 0.3^b %	20.8 ± 0.5^c g	8.9 ± 0.3^a mg %	can prevent IBD
C=C1[C@H](O)CC(=C/C=C2\CCC[C@]3(C)C([C@@H](C)CCCC(C)(C)O)CC[C@@]23C)C[C@H]1O (stereo partly drawn) [2-MD, 2-methylene-19-nor-20(S)-1α,25-dihydroxyvitamin D3]	effective at inhibiting and/or preventing the development of colitis symptoms	0/9^c	5.3 ± 0.1^b %	20.8 ± 1.0^c g	–	–
